Data from patent publication US9346815B2, “5-chloro-2-difluoromethoxyphenyl pyrazolopyrimidine compounds, compositions and methods of use thereof” (Genentech, Inc., priority 2014, dated 2016).

What was measured:
[1] = system: JAK1-dependent STAT6 phosphorylation downstream of IL-13 stimulation in TF-1 human erythroleukemia cells; assay: JAK1 pathway assay in TF-1 cells (IL-13-pSTAT6, MSD); assay type: cell-based; conditions: Homo sapiens, TF-1, TF-1 cells, read-out: IL13-pSTAT6 EC50_TF-1
Procedure, shortened: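 TF-1 cells starved of GM-CSF overnight, assayed serum-free; BEAS-2B cells in complete growth medium. Lysate pSTAT6 measured by MSD; EC50 derived.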

[2] = molecular target: isolated recombinant JAK1 kinase domain (Homo sapiens (Human), UniProt P23458); assay: JAK1 enzyme assay (Caliper LabChip, peptide phosphorylation); assay type: biochemical; conditions: isolated recombinant JAK1 kinase domain, 25 μM ATP
[3] = molecular target: isolated recombinant JAK2 kinase domain (Homo sapiens (Human), UniProt O60674); assay: JAK2 enzyme assay (Caliper LabChip, peptide phosphorylation); assay type: biochemical; conditions: 25 μM ATP
Sequence of isolated recombinant JAK2 kinase domain (O60674 849-1124): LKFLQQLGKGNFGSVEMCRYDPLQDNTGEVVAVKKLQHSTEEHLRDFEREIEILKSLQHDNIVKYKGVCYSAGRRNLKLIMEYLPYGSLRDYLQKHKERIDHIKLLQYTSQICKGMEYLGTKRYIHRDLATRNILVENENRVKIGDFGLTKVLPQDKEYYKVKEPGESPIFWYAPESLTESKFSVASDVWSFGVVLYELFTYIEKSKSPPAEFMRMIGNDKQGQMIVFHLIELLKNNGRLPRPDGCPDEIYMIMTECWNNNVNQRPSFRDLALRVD

Sequence of isolated recombinant JAK1 kinase domain (P23458 875-1153): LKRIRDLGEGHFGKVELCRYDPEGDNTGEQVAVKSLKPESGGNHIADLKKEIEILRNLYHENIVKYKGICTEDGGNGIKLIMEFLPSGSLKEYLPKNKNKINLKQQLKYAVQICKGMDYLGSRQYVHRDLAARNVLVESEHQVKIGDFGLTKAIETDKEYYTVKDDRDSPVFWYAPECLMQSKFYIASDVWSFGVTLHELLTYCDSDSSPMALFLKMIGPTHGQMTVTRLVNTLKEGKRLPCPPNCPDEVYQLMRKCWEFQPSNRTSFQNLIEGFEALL

EC50 [1] | Ki [2] | Ki [3] | Compound
23.5 nM | 2.23 nM | 1.46 nM | CN(CCCC(N)=O)C1CCN(c2nc(-c3cc(Cl)ccc3OC(F)F)c(NC(=O)c3cnn4cccnc34)s2)CC1 [Example 193, N-[2-[4-[(4-amino-4-oxo-butyl)-methyl-amino]-1-piperidyl]-4-[5-chloro-2-(difluoromethoxy)phenyl]thiazol-5-yl]pyrazolo[1,5-a]pyrimidine-3-carboxamide]
8 nM | 0.91 nM | 1.47 nM | CN1CC[C@@H]2CN(C(=O)Cn3cc(NC(=O)c4cnn5cccnc45)c(-c4cc(Cl)ccc4OC(F)F)n3)CC[C@@H]21 [Example 41, N-[1-[2-[(3aR,7aS)-1-methyl-3,3a,4,6,7,7a-hexahydro-2H-pyrrolo[3,2-c]pyridin-5-yl]-2-oxo-ethyl]-3-[5-chloro-2-(difluoromethoxy)phenyl]pyrazol-4-yl]pyrazolo[1,5-a]pyrimidine-3-carboxamide]
13.4 nM | 0.78 nM | 0.13 nM | CCOC(=O)CCCN1CCC(n2cc(NC(=O)c3c(N)nn4cccnc34)c(-c3cc(Cl)ccc3OC(F)F)n2)CC1 [Example 175, ethyl 4-[4-[4-[(2-aminopyrazolo[1,5-a]pyrimidine-3-carbonyl)amino]-3-[5-chloro-2-(difluoromethoxy)phenyl]pyrazol-1-yl]-1-piperidyl]butanoate]
11.7 nM | 0.61 nM | 2.2 nM | CC(C)Oc1ccc(CN(C)C2CCN(C(=O)Cn3cc(NC(=O)c4cnn5cccnc45)c(-c4cc(Cl)ccc4OC(F)F)n3)CC2)cc1 [Example 125, N-[3-[5-chloro-2-(difluoromethoxy)phenyl]-1-[2-[4-[(4-isopropoxyphenyl)methyl-methyl-amino]-1-piperidyl]-2-oxo-ethyl]pyrazol-4-yl]pyrazolo[1,5-a]pyrimidine-3-carboxamide]
12.3 nM | 0.67 nM | 0.09 nM | CC(C)CN1CCC(n2cc(NC(=O)c3c(N)nn4cccnc34)c(-c3cc(Cl)ccc3OC(F)F)n2)CC1 [Example 174, 2-amino-N-[3-[5-chloro-2-(difluoromethoxy)phenyl]-1-(1-isobutyl-4-piperidyl)pyrazol-4-yl]pyrazolo[1,5-a]pyrimidine-3-carboxamide]
62.7 nM | 5.84 nM | 1.73 nM | CN1C[C@@H]2CN(Cc3nc(-c4cc(Cl)ccc4OC(F)F)c(NC(=O)c4cnn5cccnc45)s3)C[C@@H]2C1 [Example 262, N-[2-[[(3aR,6aS)-2-methyl-1,3,3a,4,6,6a-hexahydropyrrolo[3,4-c]pyrrol-5-yl]methyl]-4-[5-chloro-2-(difluoromethoxy)phenyl]thiazol-5-yl]pyrazolo[1,5-a]pyrimidine-3-carboxamide]
344 nM | 0.51 nM | 1.21 nM | O=C(Nc1cn(CC(=O)N2CC[C@@H]3CNCC[C@@H]32)nc1-c1cc(Cl)ccc1OC(F)F)c1cnn2cccnc12 [Example 20, N-[1-[2-[(3aR,7aS)-2,3,3a,4,5,6,7,7a-octahydropyrrolo[3,2-c]pyridin-1-yl]-2-oxo-ethyl]-3-[5-chloro-2-(difluoromethoxy)phenyl]pyrazol-4-yl]pyrazolo[1,5-a]pyrimidine-3-carboxamide]
130 nM | 3.04 nM | 0.9 nM | Nc1nn2cccnc2c1C(=O)Nc1cn(C2CCN(CCCCc3ccccc3)CC2)nc1-c1cc(Cl)ccc1OC(F)F [Example 179, 2-amino-N-[3-[5-chloro-2-(difluoromethoxy)phenyl]-1-[1-(4-phenylbutyl)-4-piperidyl]pyrazol-4-yl]pyrazolo[1,5-a]pyrimidine-3-carboxamide]
98.5 nM | 0.46 nM | 0.5 nM | O=C(Nc1cn(CC(=O)N2C[C@H]3CN(CCCN4CCOC4=O)C[C@H]3C2)nc1-c1cc(Cl)ccc1OC(F)F)c1cnn2cccnc12 [Example 32, N-[1-[2-[(3aS,6aR)-2-[3-(2-oxooxazolidin-3-yl)propyl]-1,3,3a,4,6,6a-hexahydropyrrolo[3,4-c]pyrrol-5-yl]-2-oxo-ethyl]-3-[5-chloro-2-(difluoromethoxy)phenyl]pyrazol-4-yl]pyrazolo[1,5-a]pyrimidine-3-carboxamide]
335 nM | 1.14 nM | 1.13 nM | O=C(Nc1cn(CC(=O)N2C[C@H]3CN(CCCO)C[C@H]3C2)nc1-c1cc(Cl)ccc1OC(F)F)c1cnn2cccnc12 [Example 14, N-[1-[2-[(3aR,6aS)-2-(3-hydroxypropyl)-1,3,3a,4,6,6a-hexahydropyrrolo[3,4-c]pyrrol-5-yl]-2-oxo-ethyl]-3-[5-chloro-2-(difluoromethoxy)phenyl]pyrazol-4-yl]pyrazolo[1,5-a]pyrimidine-3-carboxamide]
22.7 nM | 0.88 nM | 1.45 nM | O=C(Nc1cn(CC(=O)N2CCC(NCCc3ccccc3)CC2)nc1-c1cc(Cl)ccc1OC(F)F)c1cnn2cccnc12 [Example 89, N-[3-[5-chloro-2-(difluoromethoxy)phenyl]-1-[2-oxo-2-[4-(2-phenylethylamino)-1-piperidyl]ethyl]pyrazol-4-yl]pyrazolo[1,5-a]pyrimidine-3-carboxamide]
20.8 nM | 1.21 nM | 0.51 nM | CN(Cc1ccc(Br)cc1)C1CCN(C(=O)Cn2cc(NC(=O)c3cnn4cccnc34)c(-c3cc(Cl)ccc3OC(F)F)n2)CC1 [Example 119, N-[1-[2-[4-[(4-bromophenyl)methyl-methyl-amino]-1-piperidyl]-2-oxo-ethyl]-3-[5-chloro-2-(difluoromethoxy)phenyl]pyrazol-4-yl]pyrazolo[1,5-a]pyrimidine-3-carboxamide]
55.6 nM | 0.92 nM | 2.03 nM | O=C(Nc1cn(CC(=O)N2CCC(NCCc3ccc(Cl)cc3)CC2)nc1-c1cc(Cl)ccc1OC(F)F)c1cnn2cccnc12 [Example 92, N-[3-[5-chloro-2-(difluoromethoxy)phenyl]-1-[2-[4-[2-(4-chlorophenyl)ethylamino]-1-piperidyl]-2-oxo-ethyl]pyrazol-4-yl]pyrazolo[1,5-a]pyrimidine-3-carboxamide]
57.7 nM | 1.28 nM | 2.48 nM | CCCCN(CC(F)(F)F)C1CCN(C(=O)Cn2cc(NC(=O)c3cnn4cccnc34)c(-c3cc(Cl)ccc3OC(F)F)n2)CC1 [Example 115, N-[1-[2-[4-[butyl(2,2,2-trifluoroethyl)amino]-1-piperidyl]-2-oxo-ethyl]-3-[5-chloro-2-(difluoromethoxy)phenyl]pyrazol-4-yl]pyrazolo[1,5-a]pyrimidine-3-carboxamide]
4.8 nM | 0.58 nM | 0.13 nM | CC(=O)N1CCC(CN2CCC(n3cc(NC(=O)c4c(N)nn5cccnc45)c(-c4cc(Cl)ccc4OC(F)F)n3)CC2)CC1 [Example 173, N-[1-[1-[(1-acetyl-4-piperidyl)methyl]-4-piperidyl]-3-[5-chloro-2-(difluoromethoxy)phenyl]pyrazol-4-yl]-2-amino-pyrazolo[1,5-a]pyrimidine-3-carboxamide]
52.4 nM | 2.08 nM | 1.38 nM | CN(C)C[C@H]1CCCN1C(=O)Cn1cc(NC(=O)c2c(N)nn3cccnc23)c(-c2cc(Cl)ccc2OC(F)F)n1 [Example 78, 2-amino-N-[3-[5-chloro-2-(difluoromethoxy)phenyl]-1-[2-[(2R)-2-[(dimethylamino)methyl]pyrrolidin-1-yl]-2-oxo-ethyl]pyrazol-4-yl]pyrazolo[1,5-a]pyrimidine-3-carboxamide]
8.1 nM | 0.62 nM | 0.56 nM | CN1C[C@@H]2CN(C(=O)Cn3cc(NC(=O)c4cnn5cccnc45)c(-c4cc(Cl)ccc4OC(F)F)n3)C[C@]2(c2ccccc2)C1 [Example 16, N-[1-[2-[(3aR,6aR)-2-methyl-3a-phenyl-3,4,6,6a-tetrahydro-1H-pyrrolo[3,4-c]pyrrol-5-yl]-2-oxo-ethyl]-3-[5-chloro-2-(difluoromethoxy)phenyl]pyrazol-4-yl]pyrazolo[1,5-a]pyrimidine-3-carboxamide]
12.7 nM | 0.68 nM | 0.12 nM | Nc1nn2cccnc2c1C(=O)Nc1cn(C2CCN(CCCO)CC2)nc1-c1cc(Cl)ccc1OC(F)F [Example 176, 2-amino-N-[3-[5-chloro-2-(difluoromethoxy)phenyl]-1-[1-(3-hydroxypropyl)-4-piperidyl]pyrazol-4-yl]pyrazolo[1,5-a]pyrimidine-3-carboxamide]
4.1 nM | 0.63 nM | 1.4 nM | CN(CC1(C)COC1)C1CCN(C(=O)Cn2cc(NC(=O)c3cnn4cccnc34)c(-c3cc(Cl)ccc3OC(F)F)n2)CC1 [Example 96, N-[3-[5-chloro-2-(difluoromethoxy)phenyl]-1-[2-[4-[methyl-[(3-methyloxetan-3-yl)methyl]amino]-1-piperidyl]-2-oxo-ethyl]pyrazol-4-yl]pyrazolo[1,5-a]pyrimidine-3-carboxamide]
26.9 nM | 0.52 nM | 1.15 nM | O=C(Nc1cn(CC(=O)N2CCC(N3Cc4ccc(Cl)cc4C3)CC2)nc1-c1cc(Cl)ccc1OC(F)F)c1cnn2cccnc12 [Example 135, N-[3-[5-chloro-2-(difluoromethoxy)phenyl]-1-[2-[4-(5-chloroisoindolin-2-yl)-1-piperidyl]-2-oxo-ethyl]pyrazol-4-yl]pyrazolo[1,5-a]pyrimidine-3-carboxamide]

Compound | EC50 [1] | Ki [2] | Ki [3]
CCCCOc1ccc(CN(C)C2CCN(C(=O)Cn3cc(NC(=O)c4cnn5cccnc45)c(-c4cc(Cl)ccc4OC(F)F)n3)CC2)cc1 [Example 127, N-[1-[2-[4-[(4-butoxyphenyl)methyl-methyl-amino]-1-piperidyl]-2-oxo-ethyl]-3-[5-chloro-2-(difluoromethoxy)phenyl]pyrazol-4-yl]pyrazolo[1,5-a]pyrimidine-3-carboxamide] | 72.4 nM | 0.78 nM | 2.44 nM
